# Data taken from US9399649B2, “Compounds for treating spinal muscular atrophy” (PTC Therapeutics Inc., priority 2012, dated 2016).
# Experiments:
# Smn protein = Smn protein assay in cultured cells (SMN HTRF); assay type: cell-based, human; conditions: SMA patient fibroblast cells (GM03813), 48 hours; for EC1.5x for Smn protein expression: 7-point concentration curve, concentration producing 1.5 times Smn protein vs DMSO vehicle; for maximum fold (Fold) increase of Smn protein: 7-point concentration data, relative to vehicle control
# Summary of the method: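 SMA patient fibroblasts, 5,000 per well in DMEM-10% FBS, exposed 48 h at 37° C. to a 7-point, 3.16-fold compound series in triplicate. RIPA lysates read by SMN HTRF (665/620 nm, overnight at room temperature); ΔF over blank expressed as fold of vehicle.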
# [1] = system: full length SMN2 minigene mRNA containing SMN2 exon 7; test: SMN2 minigene mRNA splicing RT-qPCR assay in cultured cells; assay type: cell-based, human; conditions: Homo sapiens, HEK293-H; HEK293H cells stably transfected with SMN2-A minigene, 24 hours, 7-point concentration curve; concentration giving 1.5-fold full length SMN2 mRNA vs vehicle; read-out: EC1.5x for production of full length SMN2 mRNA
# Summary of the method: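 HEK293H cells stably carrying SMN2-A minigene treated 24 h (37 °C) with compound, 7-point 3.16-fold dilution, duplicates. Multiplex RT-qPCR on lysate with exon 7/luciferase primers and exon 7–8 junction probe (minigene-specific). Full-length transcript normalised to GAPDH by modified ΔΔCt, expressed relative to vehicle-treated cells.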
Compound,melting point [°C],EC1.5x for Smn protein expression (Smn protein),maximum fold (Fold) increase of Smn protein (Smn protein),EC (1.5-fold) [1] [µM]
"CCc1nc(C)cn2cc(-c3cc4ccc(N5C[C@@H](C)N(C)[C@@H](C)C5)cc4c(=O)o3)nc12 [Cpd 158, 3-(8-ethyl-6-methylimidazo[1,2-a]pyrazin-2-yl)-7-[(3R,5S)-3,4,5-trimethylpiperazin-1-yl]-1H-isochromen-1-one]",235 to 238,**** (an EC1.5×≦0.3 nM is indicated by four stars (****)),***** (a fold increase >1.65 is indicated by five stars (*****)),≤ 0.1
"CCc1nc(C)cn2cc(-c3cc4ccc(C5=CCNCC5)cc4c(=O)o3)nc12 [Cpd 159, 3-(8-ethyl-6-methylimidazo[1,2-a]pyrazin-2-yl)-7-(1,2,3,6-tetrahydropyridin-4-yl)-1H-isochromen-1-one]",239 to 241,**** (an EC1.5×≦0.3 nM is indicated by four stars (****)),***** (a fold increase >1.65 is indicated by five stars (*****)),≤ 0.1
